Source: US12485095B2, “Plurality of tasquinimod particles and use thereof” (ACTIVE BIOTECH AB, priority 2021, dated 2025)
In brackets after ≈: the same amount, converted by molar mass.

Assays:
[1] = gastrointestinal permeability using the Caco-2 cell model; format: in vitro ADME; settings: human, read-out: permeability coefficient
Procedure: (§1) Tasquinimod is a compound having high gastrointestinal permeability and high aqueous solubility. […] For a drug compound to be classified as “highly soluble” according to the BCS, the highest single therapeutic dose thereof should be completely soluble in 250 ml or less of aqueous media over the pH range of 1.2-6.8 at 37±1° C. […] Based on these properties, tasquinimod is classified as a BCS Class I compound. […] In view of the high water-solubility of tasquinimod, the low dissolution rate of tasquinimod particles in aqueous phase was completely unexpected. A low dissolution rate is susceptible of reducing the bioavailability and may pose an obstacle to an efficient oral administration of an otherwise therapeutically active compound.

[2] = test system: Caco-2 cell model; experiment: as above; format: in vitro ADME
Procedure: as §1

[3] = aqueous solubility of tasquinimod; format: physicochemical
Procedure: as §1

[4] = pKa of tasquinimod; format: physicochemical; settings: weak acid
[5] = Biopharmaceutics Classification System (BCS) classification; format: physicochemical; settings: based on permeability and solubility
Procedure: as §1

With `COc1cccc2c1c(O)c(C(=O)N(C)c1ccc(C(F)(F)F)cc1)c(=O)n2C` [tasquinimod, 4-hydroxy-5-methoxy-N, 1-dimethyl-2-oxo-N-[4-(trifluoromethyl)phenyl]-1,2-dihydroquinoline-3-carboxamide] the Papp [1] was 43.5 ± 0.9 ×10⁻⁶ cm/s, the “permeability ranking according to the Biopharmaceutics Classification System (BCS)” value [2] was “highly permeable” and the “solubility relative to BCS "highly soluble" cut-off value” ([3]; aqueous media over the pH range of 1.2-6.8 at 37±1° C.) was “ten-fold”. For the same compound, the solubility ([3]; aqueous medium, pH 7.4, aqueous buffer) was 250 µg/mL (≈ 615 µM), the “solubility relative to BCS "highly soluble" cut-off value” ([3]; physiological pH at 7.4) was 50 fold and the pKa [4] was 6.5. For the same compound, the BCS class [5] was “BCS Class I”.
